According to patent US11446287B2, “Compounds and methods for EP300 or CBP modulation and indications therefor” (Opna Immuno-Oncology SA, priority 2019, dated 2022):

The molecules below were run against T1, Recombinant human EP300 containing the bromodomain (EP300-BD (1040-1161)) (Homo sapiens, UniProt Q09472) (assay: EP300 Alphascreen binding assay).
T1 construct: Recombinant human EP300 bromodomain (EP300-BD (1040-1161)); made in house; host or cells: E. coli BL21-CodonPlus (DE3), modified pET vector
T1 sequence (Q09472 1040-1161): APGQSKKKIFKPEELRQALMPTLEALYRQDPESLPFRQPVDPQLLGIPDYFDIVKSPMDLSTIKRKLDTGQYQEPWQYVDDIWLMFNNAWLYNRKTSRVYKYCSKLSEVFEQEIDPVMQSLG
Summary of the method: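 Displacement of a biotinylated acetyl-K56 histone H3 peptide from the N-His bromodomain construct (1040-1161) measured by AlphaScreen proximity, beads at 7.5 μg/ml final, read 60 min after addition. Protein, peptide and compound first incubated 1 h at room temperature, pH 7.5 HEPES buffer; IC50 by four-parameter logistic fit.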

For `Cc1noc(C)c1-c1cnc2c(c1)c(-c1c(F)cc(C(=O)O)cc1OC(F)(F)F)cn2C(C1CC1)C1CC1` [P-0230, 4-(1-(dicyclopropylmethyl)-5-(3,5-dimethylisoxazol-4-yl)-1H-pyrrolo[2,3-b]pyridin-3-yl)-3-fluoro-5-(trifluoromethoxy)benzoic acid], which IC50 is on record?
The IC50 was 0.0001 to 1 µM.

With `Cc1ccccc1-n1cc(-c2ccc(C(=O)O)cc2OC(F)(F)F)c2cc(-c3c(C)noc3C)cnc21` [P-0231, 4-(5-(3,5-dimethylisoxazol-4-yl)-1-(o-tolyl)-1H-pyrrolo[2,3-b]pyridin-3-yl)-3-(trifluoromethoxy)benzoic acid] as the molecule, how does the IC50 read?
The IC50 was 0.0001 to 1 µM.

With `Cc1noc(C)c1-c1cnc2c(c1)c(-c1ccc(C(=O)O)cc1OC(F)(F)F)cn2-c1ccc(F)cc1F` [P-0232, 4-(1-(2,4-difluorophenyl)-5-(3,5-dimethylisoxazol-4-yl)-1H-pyrrolo[2,3-b]pyridin-3-yl)-3-(trifluoromethoxy)benzoic acid] as the molecule, how does the IC50 read?
Its IC50 is 0.0001 to 1 µM.

With `Cc1noc(C)c1-c1cnc2c(c1)c(-c1ccc(C(=O)O)cc1OC(F)(F)F)cn2-c1cc(F)ccc1F` [P-0233, 4-(1-(2,5-difluorophenyl)-5-(3,5-dimethylisoxazol-4-yl)-1H-pyrrolo[2,3-b]pyridin-3-yl)-3-(trifluoromethoxy)benzoic acid] as the molecule, how does the IC50 read?
The IC50 was 0.0001 to 1 µM.

For `Cc1noc(C)c1-c1cnc2c(-c3ccc(C(=O)O)cc3F)c(C(F)(F)F)n([C@@H](C)c3ccccn3)c2c1` [P-0234, (S)-4-(6-(3,5-dimethylisoxazol-4-yl)-1-(1-(pyridin-2-yl)ethyl)-2-(trifluoromethyl)-1H-pyrrolo[3,2-b]pyridin-3-yl)-3-fluorobenzoic acid], which IC50 is on record?
The IC50 was 0.0001 to 1 µM.

For `Cc1cc(C(=O)O)ccc1-c1c(C(F)(F)F)n([C@@H](C)c2ccccn2)c2cc(-c3c(C)noc3C)cnc12` [P-0235, (S)-4-(6-(3,5-dimethylisoxazol-4-yl)-1-(1-(pyridin-2-yl)ethyl)-2-(trifluoromethyl)-1H-pyrrolo[3,2-b]pyridin-3-yl)-3-methylbenzoic acid], which IC50 is on record?
The IC50 was 0.0001 to 1 µM.

`COc1cc(C(=O)O)ccc1-c1c(C(F)(F)F)n([C@@H](C)c2ccccn2)c2cc(-c3c(C)noc3C)cnc12` [P-0236, (S)-4-(6-(3,5-dimethylisoxazol-4-yl)-1-(1-(pyridin-2-yl)ethyl)-2-(trifluoromethyl)-1H-pyrrolo[3,2-b]pyridin-3-yl)-3-methoxybenzoic acid] was tested. Which IC50 did it give?
Its IC50 is 0.0001 to 1 µM.

With `Cc1noc(C)c1-c1cnc2c(-c3cn(C)nc3C3CC3)c(C(F)(F)F)n([C@@H](C)c3ccccn3)c2c1` [P-0237, (S)-4-(3-(3-cyclopropyl-1-methyl-1H-pyrazol-4-yl)-1-(1-(pyridin-2-yl)ethyl)-2-(trifluoromethyl)-1H-pyrrolo[3,2-b]pyridin-6-yl)-3,5-dimethylisoxazole] as the molecule, how does the IC50 read?
Its IC50 is 0.0001 to 1 µM.

How did the IC50 turn out when `Cc1noc(C)c1-c1cnc2c(-c3cc(C(=O)O)ccc3F)c(C(F)(F)F)n([C@@H](C)c3ccccn3)c2c1` [P-0238, (S)-3-(6-(3,5-dimethylisoxazol-4-yl)-1-(1-(pyridin-2-yl)ethyl)-2-(trifluoromethyl)-1H-pyrrolo[3,2-b]pyridin-3-yl)-4-fluorobenzoic acid] was run?
Its IC50 is 0.0001 to 1 µM.

Which IC50 does the source give for `COc1ccc(C(=O)O)cc1-c1c(C(F)(F)F)n([C@@H](C)c2ccccn2)c2cc(-c3c(C)noc3C)cnc12` [P-0239, (S)-3-(6-(3,5-dimethylisoxazol-4-yl)-1-(1-(pyridin-2-yl)ethyl)-2-(trifluoromethyl)-1H-pyrrolo[3,2-b]pyridin-3-yl)-4-methoxybenzoic acid] here?
Its IC50 is 0.0001 to 1 µM.

With `Cc1noc(C)c1-c1cnc2c(-c3cc(F)cc(C(=O)O)c3)c(C(F)(F)F)n([C@@H](C)c3ccccn3)c2c1` [P-0240, (S)-3-(6-(3,5-dimethylisoxazol-4-yl)-1-(1-(pyridin-2-yl)ethyl)-2-(trifluoromethyl)-1H-pyrrolo[3,2-b]pyridin-3-yl)-5-fluorobenzoic acid] as the molecule, how does the IC50 read?
The IC50 was 0.0001 to 1 µM.

Which IC50 does the source give for `Cc1noc(C)c1-c1cnc2c(-c3cc(Cl)cc(C(=O)O)c3)c(C(F)(F)F)n([C@@H](C)c3ccccn3)c2c1` [P-0241, (S)-3-chloro-5-(6-(3,5-dimethylisoxazol-4-yl)-1-(1-(pyridin-2-yl)ethyl)-2-(trifluoromethyl)-1H-pyrrolo[3,2-b]pyridin-3-yl)benzoic acid] here?
Its IC50 is 0.0001 to 1 µM.

With `Cc1noc(C)c1-c1cnc2c(-c3ccc(C(=O)O)c(F)c3)c(C(F)(F)F)n([C@@H](C)c3ccccn3)c2c1` [P-0242, (S)-4-(6-(3,5-dimethylisoxazol-4-yl)-1-(1-(pyridin-2-yl)ethyl)-2-(trifluoromethyl)-1H-pyrrolo[3,2-b]pyridin-3-yl)-2-fluorobenzoic acid] as the molecule, how does the IC50 read?
Its IC50 is 1 to 8 µM.
